Ends that are not written are not given here.
Tests used:
[1] = target: T1, TCRα CP peptide (Mus musculus, UniProt P01849); assay: FRET between TCRα CP-NBD and Rho labeled peptides in PC LUV; format: binding; conditions: acceptor-to-lipid ratio of 1:1000
T1 construct: TCRα CP peptide was labeled with NBD, as a donor fluorophore; made in house; host or cells: chemical synthesis (Fmoc solid phase, Rink amide resin)
Procedure: (§1) Thin films of PC were generated after dissolving the lipids in a 2:1 (v/v) mixture of CHCL3/MeOH and drying them under a stream of nitrogen gas while rotating them. The films were lyophilized overnight, sealed with argon gas to prevent oxidation of the lipids, and stored at −20° C. Before the experiments, films were suspended in the appropriate buffer and vortexed for 1.5 min. The lipid suspension underwent five cycles of freezing-thawing and extrusion through polycarbonate membranes with 1- and 0.1-μm diameter pores to create large unilamellar vesicles.
(§2) The FRET experiments were performed by using NBD and Rho labeled peptides. Fluorescence spectra were obtained at room temperature, with excitation set at 467 nm (10-nm slit) and emission scan at 500-600 nm (10-nm slits). […] Fluorescence spectra were obtained before and after addition of the Rho labeled peptide. The fluorescence values were corrected by subtracting the corresponding blank (buffer with the same vesicles concentration). […]
Further investigations were performed to reveal whether gp41 TMD interacts solely with CD3 or perhaps it interacts with the TCRα TMD. […] Then, the fluorescence energy transfer (FRET) was measured between fluorescently labeled TCRα CP-NBD peptide and gp41 TM-Rho, TCRα CP-Rho or TAR/PS-Rho. […]

[2] = system: T cells activated by PMA/ionomycin; assay: T-cell activation induced by PMA/ionomycin; format: cell-based, mice
Procedure: (§3) For some experiments, T cells were activated with immobilized anti-CD3 antibodies (Kaleeba et al., 1998, Int. Immunol. 10, 453-461) or PMA/ionomycin as described (Wang et al., 2002 Clin. Immunol. 105, 199-207). After 72 hours, at 37° C. in a 7.5% CO2 humidified atmosphere, the T-cells were pulsed with 1 μCi (H^3) thymidine, with a specific activity of 5.0 Ci/mmol, for 7 hours, and (H^3) thymidine incorporation was measured using a 96-well plate beta-counter. The mean cpm±Standard Error was calculated for each triplicate or quadruplicate. The results of T-cell proliferation experiments are shown as the percentage of T-cell proliferation inhibition triggered by the antigen in the absence of gp41 TMD peptides.
PMA/ionomycin activates the T cell downstream of the membrane regardless of the presence or absence of the TCR.

[3] = system: T-cell line specific to MOG p35-55; assay: T-cell proliferation induced by MOG 35-55 peptide and APC (H3-thymidine uptake); format: cell-based, mice; conditions: for cell survival in culture versus PBS control: T cells incubated with peptide
Procedure: T-cells were plated onto round 96-well plates in medium containing RPMI-1640 supplemented with 2.5% fetal calf serum (FCS), 100 U/ml penicillin, 100 μg/ml streptomycin, 50 μM 2β-mercaptoethanol, and 2 mM L-glutamine. 12×10^4 cells of the T-cell line specific to MOG p35-55, 5×10^5 irradiated (3000 rad) spleen cells (APC), and 10 μg/ml of MOG p35-55 were added to each well. In addition, peptides corresponding to the gp41 TMD region were added. Each determination was made at least in triplicate.
In order to exclude interaction between the examined peptides and the MOG p35-55 antigen, the MOG p35-55 antigen was initially added to the APCs in a test tube, and in a second test tube, the examined peptides were added to the T-cells. After 1 hour, the APCs and the T-cells were mixed and incubated for 72 h in a 96 well round bottom plate.
as §3
Lymph node cells were prepared from MOG 35-55/CFA immunized mice and their T cell response to the MOG 35-55 peptide was studied. T-cells were activated with the MOG 35-55 peptide and APC in the presence of gp41 TMD and TM11-19 (GLVGLRIVF; SEQ ID NO: 6) in three different concentrations (5, 25 and 50 μg/ml) and the proliferative responses was assayed. The T cell line proliferative response was determined after 3 days of incubation using a H3-thymidine uptake assay. […] The uninhibited T-cell proliferative responses were 9382±891 cpm.

[4] = target: T2, TLR2 TMD (Homo sapiens, UniProt O60603); assay: FRET between NBD labeled peptides and TLR2-Rho in LUVs; format: binding; conditions: 100 μM LUVs; peptide 0.4 μM; TLR2-Rho 0.025-0.8 μM
T2 construct: made in house; host or cells: chemical synthesis (Fmoc solid phase, Rink amide resin)
Procedure: as §1, §2
The energy transfer from the association of the gp41 TMD and the TLR2 TMD peptides was measured in the presence of 100 μM LUVs. […] As a control, the energy transfer between TLR2 and TAR1p/s (MVLGVFALLPLISGSL; SEQ ID NO:39) was measured. […]

[5] = system: T-cells activated with anti-CD3; assay: T-cell activation induced by mitogenic anti-CD3 antibodies; format: cell-based, mice; conditions: 1 μg/ml anti-CD3 and APC; 50 μg/ml peptide
Procedure: as §3
Mitogenic anti-CD3 antibodies activate CD3 signaling regardless of the presence or absence of TCR (Keppler et al., 2006, J. Leukoc. Biol. 79, 616-627). Thus, T-cells were activated with 1 μg/ml anti-CD3 and APC in the presence of 50 μg/ml gp41 TMD or gp41 TM11-19, and the proliferative responses were assayed. The TCRα Core Peptide (GLRILLLKV; SEQ ID NO: 37; TCRα CP) served as a control peptide.

[6] = system: CD3 molecules; assay: Co-localization of NBD-labeled peptides with CD3/TCR molecules in T cells (confocal fluorescence microscopy); format: cell-based, mice; conditions: NBD-conjugated peptide 2 μM, 1 h at 37° C., MOG35-55 T-cells
Procedure: Resting MOG35-55 T-cells or after activation for 72 h with MOG35-55 and APC were blocked with 1% BSA at room temperature to block non-specific binding. After 30 min the cells were washed and divided into aliquots containing 100,000 cells per 100 μl, and either gp41 TMD or a control membrane-binding amphipathic peptide (AMP-scr) was added (final concentration of 2 μM) for 1 h at 37° c. The cells were then washed and labeled with the tested antibody for 25 min at RT followed by biotin-conjugated anti-hamster IgG 25 min at RT and Streptavidin PE-Cy-5 10 min at RT (eBioscience San-Diego Calif., USA). Anti-hamster IgG followed by Streptavidin-Cy-5 served as a measure of non-specific binding amphipathic (AMP) peptide served as low TCR affinity control. The cells were analyzed by confocal fluorescence microscopy using Lab-Tek 8 chambers cover-glass (nunc) with living cells. The labeled cell samples were observed under a fluorescence confocal microscope. PE-Cy-5 excitation was done with HeNe laser 633 nm (emission data was collected with filter BA660IF, 660 nm long pass). NBD excitation was done with Ar laser 488 nm (emission data was collected from 505-525 nm). The co-localization percentage was quantified suing the “Simple PCI” software, and calculated as: (Co-localization fluorescence/NBD fluorescence)×100=co-localization percentage. […]

[7] = system: RAW264.7 macrophage cells; assay: TNFα secretion from RAW264.7 macrophages (ELISA); format: cell-based; conditions: peptide 20 μM for 2 hours
Procedure: RAW264.7 macrophage cells were plated in a 96 well plate at a concentration of 20,000 cells per well and grown over-night in RPMI medium supplemented with 10% FBS and 1% Pen-Strep and 1% L-glutamine at 37 degrees with 5% CO2. The following day media was changed and the gp41 TMD peptide was added at a concentration of 20 μM—dissolved in DMSO and diluted 1:100. The cells were incubated in the presence of the peptide for 2 hours afterwards the media was removed and cells were washed twice with 100 μl of fresh media. Lipopolysaccharide (LPS) and Lipoteichoic acid (LTA) ligands were added for 5 hours (LPS was added at the concentration of 10 ng/ml and LTA added at 500 ng/ml; cells were grown at this time with 200 μl). After 5 hours 150 were taken for the measurement of TNFα by an ELISA kit.
RAW264.7 macrophages were grown in the presence of gp41 TMD peptides for 2 hours at a concentration of 20 μM. As controls, RAW264.7 macrophages were grown in the presence of GGG peptides or in the absence of peptides (FIG. 10, GGG and Control, respectively). Thereafter, the medium was washed twice and 500 ng/ml of LTA or 10 ng/ml of LPS was added for 5 hours. In order to evaluate TNFα levels an ELISA assay was performed. Results are shown normalized to the level of TNFα secretion induced by the ligands in the absence of peptides (FIG. 10 Control). The result is an average of three measurements.

T2 sequence (O60603 589-609 limits assumed): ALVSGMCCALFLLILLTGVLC

TCRα CP-Rho: TCRα CP peptide labeled with Rho-TAMRA as an acceptor fluorophore (GLRILLLKV-NH2; also: labeled with Rho-TAMRA, position not given here)
energy transfer from TCRα CP-NBD [1]: ~37%

GLRILLLKV [TCRα CP, reference compound]
inhibition of T cell activation by PMA/ionomycin [2]: did not inhibit

GLVGLRIVF-NH2 [TM11-19, GLVGLRIVF]
cell survival in culture versus PBS control [3]: same survival in culture

MVLGVFALLPLISGSL [TAR1p/s, reference compound]
percent of energy transfer with TLR2-Rho [4]: no energy transfer was detected

KKKLFIMIVGGLVGLRIVFAVLSIKKK [gp41 TMD]
inhibition of T-cell activation by mitogenic anti-CD3 antibodies [5]: inhibited
inhibition of T-cell proliferation ([3]; MOG 35-55 peptide and APC, 5, 25 and 50 μg/ml peptide, 3 days, H3-thymidine uptake): dose dependent inhibition
cell survival in culture versus PBS control [3]: same survival in culture
co-localization percentage with the CD3 molecules [6]: 58.8%
TNFα secretion in response to LPS ([7]; then 10 ng/ml LPS for 5 hours): reduces TNFα secretion
TNFα secretion in response to LTA ([7]; then 500 ng/ml LTA for 5 hours): inhibits TNFα secretion
inhibition of T cell activation by PMA/ionomycin [2]: did not inhibit
percent of energy transfer with TLR2-Rho [4]: over 60%

— US8986712B2, “Peptides derived from HIV-1 gp41 transmembrane domain for t-immunomodulation” (Yeda Research and Development Co., Ltd., priority 2009, dated 2015)
